Assay results published in the supplement of paper PMC5908809.

What was measured:
IMC-1 (IL-2 20 ng/mL) [1] = assay: percent inhibition of viability; higher = more inhibition; conditions: 72 h
[2] = tested on: normal primary NK cells, pool 3 (3 donors) (IL-2 2.5 ng/mL); assay: as above; conditions: 72 h
[3] = tested on: normal primary NK cells, pool 1 (3 donors) (IL-2 2.5 ng/mL); assay: as above; conditions: 72 h
KHYG-1 (IL-2 2.5 ng/mL) [4] = assay: as above; conditions: 72 h
NK-YS (IL-2 2.5 ng/mL) [5] = assay: as above; conditions: 72 h
[6] = tested on: normal primary NK cells, pool 1 (3 donors), resting (IL-2 0 ng/mL); assay: as above; conditions: 72 h
YT (IL-2 2.5 ng/mL) [7] = assay: as above; conditions: 72 h
NKL (IL-2 2.5 ng/mL) [8] = assay: as above; conditions: 72 h
NK-92 (IL-2 2.5 ng/mL) [9] = assay: as above; conditions: 72 h
SNK-6 (IL-2 2.5 ng/mL) [10] = assay: as above; conditions: 72 h
DERL-7 (IL-2 2.5 ng/mL) [11] = assay: as above; conditions: 72 h
[12] = tested on: normal primary NK cells, pool 2 (3 donors) (IL-2 2.5 ng/mL); assay: as above; conditions: 72 h
KAI3 (IL-2 2.5 ng/mL) [13] = assay: as above; conditions: 72 h
[14] = tested on: normal NK cells expanded with K562-aAPC; assay: as above; conditions: 72 h, IL-2 2.5 ng/mL
Protocol: (§1)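 Drug sensitivity and resistance testing on K562-aAPC-expanded normal NK cells: 5 concentrations (10-fold steps over a 10,000-fold range), 72 h at 37 °C, viability by CellTiter-Glo normalised to DMSO and benzethonium chloride controls; DSS from the fitted curve.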

[15] = tested on: normal NK cells expanded with K562-aAPC; assay: drug sensitivity score (DSS) (DSS units); higher = more sensitive; extreme values may be limits of the assay; conditions: 72 h; IL-2 2.5 ng/mL
Protocol: as §1

IMC-1 (IL-2 20 ng/mL) [16] = assay: as above; conditions: 72 h
[17] = tested on: normal primary NK cells, pool 3 (3 donors) (IL-2 2.5 ng/mL); assay: as above; conditions: 72 h
[18] = tested on: normal primary NK cells, pool 1 (3 donors) (IL-2 2.5 ng/mL); assay: as above; conditions: 72 h
KHYG-1 (IL-2 2.5 ng/mL) [19] = assay: as above; conditions: 72 h
NK-YS (IL-2 2.5 ng/mL) [20] = assay: as above; conditions: 72 h
[21] = tested on: normal primary NK cells, pool 1 (3 donors), resting (IL-2 0 ng/mL); assay: as above; conditions: 72 h
YT (IL-2 2.5 ng/mL) [22] = assay: as above; conditions: 72 h
NKL (IL-2 2.5 ng/mL) [23] = assay: as above; conditions: 72 h
NK-92 (IL-2 2.5 ng/mL) [24] = assay: as above; conditions: 72 h
SNK-6 (IL-2 2.5 ng/mL) [25] = assay: as above; conditions: 72 h
DERL-7 (IL-2 2.5 ng/mL) [26] = assay: as above; conditions: 72 h
[27] = tested on: normal primary NK cells, pool 2 (3 donors) (IL-2 2.5 ng/mL); assay: as above; conditions: 72 h
KAI3 (IL-2 2.5 ng/mL) [28] = assay: as above; conditions: 72 h

Cn1c(=O)c(F)c(Nc2ccc(I)cc2F)c2c(=O)n(C[C@@H](O)CO)cnc21 [TAK-733] (max concentration tested 1000 nM)
percent inhibition of viability [%]
Conditions	0.1 nM	1 nM	10 nM	100 nM	1000 nM
DERL-7 (IL-2 2.5 ng/mL) [11]	3.05	13.4	23	41.5	47.2
IMC-1 (IL-2 20 ng/mL) [1]	-1.32	1.37	0.58	3.83	18.9
KAI3 (IL-2 2.5 ng/mL) [13]	2.03	4.38	17.2	23.1	29.4
KHYG-1 (IL-2 2.5 ng/mL) [4]	4.66	9.31	20.6	48.8	64.9
NK-92 (IL-2 2.5 ng/mL) [9]	3	0.98	-25.3	-5.54	19.1
NK-YS (IL-2 2.5 ng/mL) [5]	-2.42	2.48	3.61	10.7	25.6
NKL (IL-2 2.5 ng/mL) [8]	0.9	12	40.6	60.1	81.3
SNK-6 (IL-2 2.5 ng/mL) [10]	6	0.96	-6.2	3.19	-10.3
YT (IL-2 2.5 ng/mL) [7]	-3.29	0.91	1.73	6.99	14.3
[2]	-10.4	-14.4	-11.3	2.73	8.36
[3]	-3.53	3.59	5.44	11.3	7.77
[6]	-1.91	4.44	-3.15	-6.45	-3.7
[12]	-4.31	-4.06	11.2	17	13.8
[14]	-0.54	1.65	5.46	3.7	18.7

Conditions	drug sensitivity score
DERL-7 (IL-2 2.5 ng/mL) [26]	10.7
IMC-1 (IL-2 20 ng/mL) [16]	1
KAI3 (IL-2 2.5 ng/mL) [28]	5.51
KHYG-1 (IL-2 2.5 ng/mL) [19]	11.7
NK-92 (IL-2 2.5 ng/mL) [24]	0.33
NK-YS (IL-2 2.5 ng/mL) [20]	1.77
NKL (IL-2 2.5 ng/mL) [23]	17.2
SNK-6 (IL-2 2.5 ng/mL) [25]	0
YT (IL-2 2.5 ng/mL) [22]	0.35
[15]	0.89
[17]	0
[18]	0.17
[21]	0
[27]	2.88

CS(=O)(=O)CCNCc1ccc(-c2ccc3ncnc(Nc4ccc(OCc5cccc(F)c5)c(Cl)c4)c3c2)o1 [Lapatinib] (max concentration tested 1000 nM)
percent inhibition of viability [%]
Conditions	0.1 nM	1 nM	10 nM	100 nM	1000 nM
DERL-7 (IL-2 2.5 ng/mL) [11]	4.2	1.17	2.53	-0.89	9.64
IMC-1 (IL-2 20 ng/mL) [1]	-4.47	-0.19	-1	2.17	9.49
KAI3 (IL-2 2.5 ng/mL) [13]	-4.84	-7.01	-5.48	-1.85	11.8
KHYG-1 (IL-2 2.5 ng/mL) [4]	-0.63	-4.12	-1.74	0.27	9.49
NK-92 (IL-2 2.5 ng/mL) [9]	-9.88	-2.81	5.1	30.6	28.1
NK-YS (IL-2 2.5 ng/mL) [5]	-7.32	-8.47	-3.59	-5.11	5.83
NKL (IL-2 2.5 ng/mL) [8]	-3.26	-0.98	3.19	8.28	14.2
SNK-6 (IL-2 2.5 ng/mL) [10]	-20.3	-7.47	-17	-15.2	-16.8
YT (IL-2 2.5 ng/mL) [7]	-1.2	-2.12	-1.08	6.88	14.2
[2]	-12.2	9.92	7.91	-3.46	-0.3
[3]	-9.91	11.7	10.2	12.6	4.9
[6]	-12	4	-0.24	6.97	30.1
[12]	-7.46	8.95	4.77	1.81	4
[14]	-5.72	-9.28	-7.55	-4.36	-0.7

Conditions	drug sensitivity score
DERL-7 (IL-2 2.5 ng/mL) [26]	0
IMC-1 (IL-2 20 ng/mL) [16]	0
KAI3 (IL-2 2.5 ng/mL) [28]	0.01
KHYG-1 (IL-2 2.5 ng/mL) [19]	0
NK-92 (IL-2 2.5 ng/mL) [24]	6.01
NK-YS (IL-2 2.5 ng/mL) [20]	0
NKL (IL-2 2.5 ng/mL) [23]	0.4
SNK-6 (IL-2 2.5 ng/mL) [25]	0
YT (IL-2 2.5 ng/mL) [22]	0.63
[15]	0
[17]	0
[18]	1.89
[21]	2.38
[27]	0
